In patent US8629242B2, “Methods of inhibiting calcineurin with ApoE analogs” (Cognosci, Inc., priority 2007, dated 2014):

What was measured:
[1] = test system: peritoneal macrophages isolated from EAE mice; experiment: In vitro effect on LPS+IFN-γ-induced inflammatory mediators in macrophages from saline-treated EAE mice; assay type: cell-based; conditions: for inhibition of NO release: 72 hours after LPS+IFN-γ; for NOS2 expression (real-time PCR): normalized to 18S rRNA, fold change vs control
Protocol: FIG. 5. In vitro effects of COG compounds on LPS and IFN-γ-induced production of inflammatory mediators in cultured peritoneal macrophages isolated from EAE mice. Conditioned medium with or without COG 133 or COG 112 was collected 45 hours after immunogen exposure for analysis of TNF-α (A) and IL-6 (B), or 72 hours after inflammatory stimulation for measurement of nitrite (C). Level of NOS2 expression was assessed by quantitative real-time PCR (D). NOS2 expression was first normalized by the endogenous control (18S rRNA) and then expressed as fold change compared to control group. Statistical analysis was performed by ANOVA and significance was shown as *(p<0.05) and **(p<0.001).
We then examined the ability of COG 112 (SEQ ID NO: 5) and COG 133 (SEQ ID NO: 1) to inhibit the in vitro release of NO, TNF-α and IL-6 using macrophages obtained from saline-treated EAE mice on dpi 35. Conditioned medium with or without COG 133 or COG 112 was collected 45 hours after immunogen (LPS+IFN-γ) exposure for analysis of TNF-α and IL-6, or 72 hours after stimulation for measurement of nitrite. […] Levels of NOS2 expression were quantified by real-time PCR. NOS2 expression was first normalized by the endogenous control (18S rRNA) and then expressed as fold change compared to control group.

enriched OPCs = experiment: OPC proliferation (BrdU) in enriched OPC culture; assay type: cell-based, rat; conditions: 1 μM, three days in proliferation medium
Protocol: FIG. 10. ApoE analog promotes proliferation of OPCs in culture. Cultures enriched in OPCs were grown in proliferation media containing BrdU in the presence and absence of 1 μM COG 112 or a peptide control. Cells were subsequently labeled with Hoescht stain to detect nuclei, a BrdU antibody to detect proliferating cells, and an A2B5 antibody to identify OPCs (left panel). The number of cells per field were counted for each condition (right panel). In graph, the Hoescht bars correspond to the total number of A2B5^+/Hoescht^+ cells, while the BrdU bars correspond to […] cells.
Enriched OPCs were collected by shaking a primary culture of P2 rat pup brain. Proliferation medium containing COG 112 (1 μM), BrdU (20 μM), 10 ng/mL FGF and PDGF was added to the enriched OPC cultures. After three days in culture, cells were stained with Hoescht stain to show nuclei, a BrdU antibody to identify proliferating cells, and an A2B5 antibody to identify OPCs (FIG. 10). Antennapedia, the prefix peptide of COG 112, was used as a control.

sciatic nerve crush = experiment: Sciatic nerve crush model; assay type: in vivo, C57BL/6J male mice; conditions: 1 mg/kg i.p. daily
Protocol: FIG. 13. COG 112 attenuates axonal neurodegeneration and promotes functional recovery after sciatic nerve crush. C57BL mice were subjected to sciatic nerve crush on left hindlimb using a number 5 jeweler's forceps. The animals received lactated Ringer's buffer or COG 112 (1 mg/kg) by i.p. 2 hr after crush followed by daily dose for 14 days. (A) To assess functional deficits after nerve crush, footprints were recorded and the Sciatic Functional Index (SFI) was calculated. […] Treatment with COG 112 also robustly augmented the mRNA expression of peripheral myelin marker P0 (B) and axonal regeneration marker GAP43 (C) quantified by real-time PCR. **P<0.01; P<0.001. (D) On day 4 after injury, the sciatic nerves were dissected and stained with FD NeuroSilver kit to reveal degenerating axons manifested as dotted lines as depicted in the schematic above the micrographs.
We used a sciatic nerve crush model to investigate whether ApoE analogs can prevent functional loss and/or promote functional recovery after nerve injury. C57BL/6J male mice were anesthetized and the sciatic nerve on left hindlimb was crushed with Number 5 Jeweler's forceps at mid-thigh level for 30 seconds. The animals were then randomly assigned to receive either COG 112 (1 mg/kg, i.p.) or lactated Ringer's buffer two hours after crush followed by daily dose for 14 days. On day 4, two animals from each group were sacrificed and crushed sciatic nerves were dissected and silver stained using a FD NeuroSilver® staining kit to reveal degenerating axons.
On day 7 and 14, footprints for each animal were taken for quantitative assessment of hindlimb motor function. A Sciatic Functional Index (SFI), which takes into account the relationship between toes and feet of an animal's hindlimb, was calculated for each animal as previously described (Bain et al. (1989) Plast. Reconstr. Surg., Vol. 83(1):129-38). SFI values of zero and […] indicate normal and complete dysfunction, respectively.
In order to examine the effect of COG 112 on remyelination and regeneration of axons, segments of sciatic nerves spanning the crushed sites were dissected and collected on day 3, 7 and 14 for examination of P0, a marker of peripheral myelination, and growth associated protein 43 (GAP43), a marker of axonal regeneration, mRNA by real time PCR.

[2] = 45 hours after LPS+IFN-γ, dose-dependent suppression

CC(=O)N[C@@H](CC(C)C)C(=O)N[C@@H](CCCNC(=N)N)C(=O)N[C@H](C(=O)N[C@@H](CCCNC(=N)N)C(=O)N[C@@H](CC(C)C)C(=O)N[C@@H](C)C(=O)N[C@@H](CO)C(=O)N[C@@H](Cc1c[nH]cn1)C(=O)N[C@@H](CC(C)C)C(=O)N[C@@H](CCCNC(=N)N)C(=O)N[C@@H](CCCCN)C(=O)N[C@@H](CC(C)C)C(=O)N[C@@H](CCCNC(=N)N)C(=O)N[C@@H](CCCCN)C(=O)N[C@@H](CCCNC(=N)N)C(=O)N[C@@H](CC(C)C)C(=O)N[C@@H](CC(C)C)C(N)=O)C(C)C [COG 133]
suppression of IL-6 ([1]; 5 μM, 45 hours after LPS+IFN-γ): only moderate, yet statistically significant, suppression | suppression of TNF-α ([1]; 5 μM, 45 hours after LPS+IFN-γ): only moderate, yet statistically significant, suppression | inhibition of NO release ([1]; 5 μM): about 37% | NOS2 expression (real-time PCR) [1]: affect NOS2 expression

Ac-RQIKIWFQNRRMKWKKCLRVRLASHLRKLRKRLL-NH2 [COG 112]
inhibition of NO release ([1]; 5 μM): completely inhibited | concentration giving complete inhibition of IL-6 levels [1, 2]: about 5 μM | concentration giving complete inhibition of TNF-α levels [1, 2]: about 5 μM | NOS2 expression (real-time PCR) [1]: more potent effect than COG 133 | number of A2B5+/BrdU+ cells (enriched OPCs): significantly increased | expression of GAP43 mRNA (real time PCR) (sciatic nerve crush; 2 weeks): robustly increased | expression of P0 mRNA (real time PCR) (sciatic nerve crush; 2 weeks): robustly increased | functional recovery (Sciatic Functional Index) (sciatic nerve crush; 2 weeks, vs vehicle, P<0.001): significantly improved functional recovery | axonal degeneration (silver staining) (sciatic nerve crush; day 4): significantly reduced axonal degeneration
